From publication PMC8800105 (The Journal of Biological Chemistry, 2021)

Target: TRPA1 (Homo sapiens, UniProt O75762)
Test: whole-cell patch clamp in HEK293
Assay type: cell-based

TRPA1, sequence (O75762 whole entry): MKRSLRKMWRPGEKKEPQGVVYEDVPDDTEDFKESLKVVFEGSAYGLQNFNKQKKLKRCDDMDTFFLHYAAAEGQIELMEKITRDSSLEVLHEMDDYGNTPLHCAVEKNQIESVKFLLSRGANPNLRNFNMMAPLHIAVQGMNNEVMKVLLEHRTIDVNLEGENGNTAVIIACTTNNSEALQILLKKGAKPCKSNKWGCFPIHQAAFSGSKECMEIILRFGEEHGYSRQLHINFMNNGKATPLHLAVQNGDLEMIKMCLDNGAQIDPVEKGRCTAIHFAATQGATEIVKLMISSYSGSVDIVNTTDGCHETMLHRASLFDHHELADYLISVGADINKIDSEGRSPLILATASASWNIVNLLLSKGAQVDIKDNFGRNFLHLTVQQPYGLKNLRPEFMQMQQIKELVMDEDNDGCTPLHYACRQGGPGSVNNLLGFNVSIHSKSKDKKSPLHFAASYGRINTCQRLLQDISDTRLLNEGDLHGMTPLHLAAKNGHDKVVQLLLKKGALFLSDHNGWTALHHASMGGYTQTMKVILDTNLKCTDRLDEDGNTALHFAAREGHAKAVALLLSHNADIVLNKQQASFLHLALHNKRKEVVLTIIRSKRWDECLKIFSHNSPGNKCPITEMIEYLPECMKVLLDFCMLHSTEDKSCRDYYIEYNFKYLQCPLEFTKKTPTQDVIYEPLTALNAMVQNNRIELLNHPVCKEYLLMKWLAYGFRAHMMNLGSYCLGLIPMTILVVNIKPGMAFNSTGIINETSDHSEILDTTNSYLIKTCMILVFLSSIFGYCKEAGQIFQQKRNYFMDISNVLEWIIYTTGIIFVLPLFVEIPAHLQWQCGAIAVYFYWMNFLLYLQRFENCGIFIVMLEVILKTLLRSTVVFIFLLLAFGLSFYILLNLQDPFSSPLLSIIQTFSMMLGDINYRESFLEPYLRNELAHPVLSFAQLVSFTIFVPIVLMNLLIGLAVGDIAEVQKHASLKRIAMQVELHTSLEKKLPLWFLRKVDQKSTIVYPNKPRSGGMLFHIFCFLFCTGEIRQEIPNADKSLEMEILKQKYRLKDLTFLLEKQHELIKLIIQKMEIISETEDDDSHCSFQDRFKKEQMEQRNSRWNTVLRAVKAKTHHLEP

SMILES | EC50 [µM]
O=[N+]([O-])c1ccc(Cl)c([N+](=O)[O-])c1 [DNCB] | 42.4 ± 20.9
O=[N+]([O-])c1ccc(F)c([N+](=O)[O-])c1 [DNFB] | 2.3 ± 0.7
